Experimental data as given in ChEMBL document CHEMBL3045441, “Microwave-assisted CAN-catalyzed solvent-free synthesis of N-allyl quinolone-based pyrano[4,3-b]chromene and benzopyrano[3,2-c]chromene derivatives and their antimicrobial activity” (2013).
Values after ≈ are worked out from the molar mass of the structure shown.

Key:
Format in all cases: functional
Candida albicans = experiment: Antimicrobial activity against Candida albicans MTCC 227 assessed as growth inhibition after 48 hr by NCCLS broth microdilution method
Pseudomonas aeruginosa = experiment: Antimicrobial activity against Pseudomonas aeruginosa MTCC 1688 assessed as growth inhibition after 24 hr by NCCLS broth microdilution method; conditions: MTCC 1688, 24 h
Aspergillus clavatus = experiment: Antimicrobial activity against Aspergillus clavatus MTCC 1323 assessed as growth inhibition after 48 hr by NCCLS broth microdilution method
Streptococcus pyogenes = experiment: Antimicrobial activity against Streptococcus pyogenes MTCC 442 assessed as growth inhibition after 24 hr by NCCLS broth microdilution method; conditions: MTCC 442, 24 h
Aspergillus niger = experiment: Antimicrobial activity against Aspergillus niger MTCC 282 assessed as growth inhibition after 48 hr by NCCLS broth microdilution method
Escherichia coli = experiment: Antimicrobial activity against Escherichia coli MTCC 443 assessed as growth inhibition after 24 hr by NCCLS broth microdilution method; conditions: MTCC 443, 24 h
Staphylococcus aureus = experiment: Antimicrobial activity against Staphylococcus aureus MTCC 96 assessed as growth inhibition after 24 hr by NCCLS broth microdilution method; conditions: MTCC 96, 24 h

| Compound | MIC (Candida albicans; MTCC 227, 48 h) | MIC (Pseudomonas aeruginosa) | MIC (Aspergillus clavatus; MTCC 1323, 48 h) | MIC (Streptococcus pyogenes) | MIC (Aspergillus niger; MTCC 282, 48 h) | MIC (Escherichia coli) | MIC (Staphylococcus aureus) | MIC (Candida albicans) | MIC (Aspergillus clavatus) | MIC (Aspergillus niger) |
| --- | --- | --- | --- | --- | --- | --- | --- | --- | --- | --- |
| C=CCn1c(=O)c(C2C3=C(CCCC3=O)Oc3c2c(=O)oc2ccccc32)cc2cc(Cl)ccc21 (stereo not drawn) | 1000 µg/mL (≈ 2060 µM) | 100 µg/mL (≈ 206 µM) | 1000 µg/mL (≈ 2060 µM) | 125 µg/mL (≈ 257 µM) | 1000 µg/mL (≈ 2060 µM) | 200 µg/mL (≈ 412 µM) | 125 µg/mL (≈ 257 µM) | – | – | – |
| C=CCn1c(=O)c(C2C3=C(CC(C)(C)CC3=O)Oc3cc(C)oc(=O)c32)cc2cc(C)ccc21 (stereo not drawn) | 1000 µg/mL (≈ 2190 µM) | 125 µg/mL (≈ 273 µM) | 250 µg/mL (≈ 546 µM) | 125 µg/mL (≈ 273 µM) | 250 µg/mL (≈ 546 µM) | 500 µg/mL (≈ 1090 µM) | 250 µg/mL (≈ 546 µM) | – | – | – |
| C=CCn1c(=O)c(C2C3=C(CC(C)(C)CC3=O)Oc3cc(C)oc(=O)c32)cc2cc(OC)ccc21 (stereo not drawn) | 500 µg/mL (≈ 1060 µM) | 500 µg/mL (≈ 1060 µM) | 1000 µg/mL (≈ 2110 µM) | 250 µg/mL (≈ 528 µM) | 1000 µg/mL (≈ 2110 µM) | 500 µg/mL (≈ 1060 µM) | 250 µg/mL (≈ 528 µM) | – | – | – |
| C=CCn1c(=O)c(C2C3=C(CCCC3=O)Oc3cc(C)oc(=O)c32)cc2cc(Cl)ccc21 (stereo not drawn) | 1000 µg/mL (≈ 2220 µM) | 500 µg/mL (≈ 1110 µM) | 1000 µg/mL (≈ 2220 µM) | 100 µg/mL (≈ 222 µM) | 500 µg/mL (≈ 1110 µM) | 500 µg/mL (≈ 1110 µM) | 100 µg/mL (≈ 222 µM) | – | – | – |
| C=CCn1c(=O)c(C2C3=C(CC(C)(C)CC3=O)Oc3cc(C)oc(=O)c32)cc2cc(Cl)ccc21 (stereo not drawn) | 1000 µg/mL (≈ 2090 µM) | 500 µg/mL (≈ 1050 µM) | > 1000 µg/mL | 125 µg/mL (≈ 262 µM) | > 1000 µg/mL | 250 µg/mL (≈ 523 µM) | 125 µg/mL (≈ 262 µM) | – | – | – |
| C=CCn1c(=O)c(C2C3=C(CC(C)(C)CC3=O)Oc3cc(C)oc(=O)c32)cc2ccccc21 (stereo not drawn) | 500 µg/mL (≈ 1130 µM) | 62.5 µg/mL (≈ 141 µM) | 500 µg/mL (≈ 1130 µM) | 250 µg/mL (≈ 564 µM) | 500 µg/mL (≈ 1130 µM) | 100 µg/mL (≈ 225 µM) | 500 µg/mL (≈ 1130 µM) | – | – | – |
| COC1=CC(=O)C[C@@H](C)[C@]12Oc1c(Cl)c(OC)cc(OC)c1C2=O [GRISEOFULVIN] | 500 µg/mL (≈ 1420 µM) | – | 100 µg/mL (≈ 283 µM) | – | 100 µg/mL (≈ 283 µM) | – | – | – | – | – |
| NYSTATIN | – | – | – | – | – | – | – | 100 µg/mL | 100 µg/mL | 100 µg/mL |
| C=CCn1c(=O)c(C2C3=C(CCCC3=O)Oc3cc(C)oc(=O)c32)cc2cc(OC)ccc21 (stereo not drawn) | 500 µg/mL (≈ 1120 µM) | 250 µg/mL (≈ 561 µM) | 1000 µg/mL (≈ 2240 µM) | 200 µg/mL (≈ 449 µM) | 1000 µg/mL (≈ 2240 µM) | 125 µg/mL (≈ 281 µM) | 200 µg/mL (≈ 449 µM) | – | – | – |
| C=CCn1c(=O)c(C2C3=C(CC(C)(C)CC3=O)Oc3c2c(=O)oc2ccccc32)cc2cc(Cl)ccc21 (stereo not drawn) | 1000 µg/mL (≈ 1950 µM) | 100 µg/mL (≈ 195 µM) | 1000 µg/mL (≈ 1950 µM) | 100 µg/mL (≈ 195 µM) | 1000 µg/mL (≈ 1950 µM) | 100 µg/mL (≈ 195 µM) | 62.5 µg/mL (≈ 122 µM) | – | – | – |
| O=C(O)c1cn(C2CC2)c2cc(N3CCNCC3)c(F)cc2c1=O [CIPROFLOXACIN] | – | – | – | 50 µg/mL (≈ 151 µM) | – | 25 µg/mL (≈ 75.4 µM) | 50 µg/mL (≈ 151 µM) | – | – | – |
| C=CCn1c(=O)c(C2C3=C(CC(C)(C)CC3=O)Oc3c2c(=O)oc2ccccc32)cc2ccccc21 (stereo not drawn) | 250 µg/mL (≈ 521 µM) | 250 µg/mL (≈ 521 µM) | 1000 µg/mL (≈ 2090 µM) | 500 µg/mL (≈ 1040 µM) | 1000 µg/mL (≈ 2090 µM) | 500 µg/mL (≈ 1040 µM) | 250 µg/mL (≈ 521 µM) | – | – | – |
| C=CCn1c(=O)c(C2C3=C(CC(C)(C)CC3=O)Oc3c2c(=O)oc2ccccc32)cc2cc(C)ccc21 (stereo not drawn) | 500 µg/mL (≈ 1010 µM) | 50 µg/mL (≈ 101 µM) | 500 µg/mL (≈ 1010 µM) | 250 µg/mL (≈ 507 µM) | 500 µg/mL (≈ 1010 µM) | 200 µg/mL (≈ 405 µM) | 125 µg/mL (≈ 253 µM) | – | – | – |
| C=CCn1c(=O)c(C2C3=C(CC(C)(C)CC3=O)Oc3c2c(=O)oc2ccccc32)cc2cc(OC)ccc21 (stereo not drawn) | 500 µg/mL (≈ 981 µM) | 125 µg/mL (≈ 245 µM) | > 1000 µg/mL | 125 µg/mL (≈ 245 µM) | > 1000 µg/mL | 250 µg/mL (≈ 491 µM) | 125 µg/mL (≈ 245 µM) | – | – | – |
| O=C(N[C@H](CO)[C@H](O)c1ccc([N+](=O)[O-])cc1)C(Cl)Cl [CHLORAMPHENICOL] | – | 50 µg/mL (≈ 155 µM) | – | 50 µg/mL (≈ 155 µM) | – | 50 µg/mL (≈ 155 µM) | 50 µg/mL (≈ 155 µM) | – | – | – |
| CC1(C)S[C@@H]2[C@H](NC(=O)[C@H](N)c3ccccc3)C(=O)N2[C@H]1C(=O)O [AMPICILLIN] | – | – | – | 100 µg/mL (≈ 286 µM) | – | 100 µg/mL (≈ 286 µM) | 250 µg/mL (≈ 715 µM) | – | – | – |
| C=CCn1c(=O)c(C2C3=C(CCCC3=O)Oc3c2c(=O)oc2ccccc32)cc2cc(C)ccc21 (stereo not drawn) | 250 µg/mL (≈ 537 µM) | 100 µg/mL (≈ 215 µM) | 500 µg/mL (≈ 1070 µM) | 250 µg/mL (≈ 537 µM) | 500 µg/mL (≈ 1070 µM) | 20 µg/mL (≈ 43 µM) | 250 µg/mL (≈ 537 µM) | – | – | – |
| C=CCn1c(=O)c(C2C3=C(CCCC3=O)Oc3c2c(=O)oc2ccccc32)cc2cc(OC)ccc21 (stereo not drawn) | 500 µg/mL (≈ 1040 µM) | 62.5 µg/mL (≈ 130 µM) | 1000 µg/mL (≈ 2080 µM) | 500 µg/mL (≈ 1040 µM) | 1000 µg/mL (≈ 2080 µM) | 100 µg/mL (≈ 208 µM) | 62.5 µg/mL (≈ 130 µM) | – | – | – |
| C=CCn1c(=O)c(C2C3=C(CCCC3=O)Oc3cc(C)oc(=O)c32)cc2cc(C)ccc21 (stereo not drawn) | 1000 µg/mL (≈ 2330 µM) | 250 µg/mL (≈ 582 µM) | 1000 µg/mL (≈ 2330 µM) | 500 µg/mL (≈ 1160 µM) | 500 µg/mL (≈ 1160 µM) | 125 µg/mL (≈ 291 µM) | 500 µg/mL (≈ 1160 µM) | – | – | – |
| C=CCn1c(=O)c(C2C3=C(CCCC3=O)Oc3cc(C)oc(=O)c32)cc2ccccc21 (stereo not drawn) | 500 µg/mL (≈ 1200 µM) | 200 µg/mL (≈ 481 µM) | 200 µg/mL (≈ 481 µM) | 250 µg/mL (≈ 602 µM) | 200 µg/mL (≈ 481 µM) | 125 µg/mL (≈ 301 µM) | 250 µg/mL (≈ 602 µM) | – | – | – |
| C=CCn1c(=O)c(C2C3=C(CCCC3=O)Oc3c2c(=O)oc2ccccc32)cc2ccccc21 (stereo not drawn) | 500 µg/mL (≈ 1110 µM) | 100 µg/mL (≈ 221 µM) | > 1000 µg/mL | 200 µg/mL (≈ 443 µM) | > 1000 µg/mL | 62.5 µg/mL (≈ 138 µM) | 200 µg/mL (≈ 443 µM) | – | – | – |
